Activity calls are given as the source filed them. No cut-off for these calls is given here.
Experiments:
[1] = molecular target: T1, 5-hydroxytryptamine receptor 2A (Homo sapiens, UniProt P28223); assay: Binding affinity at 5HT2A receptor
[2] = molecular target: 5-hydroxytryptamine receptor 2B (Homo sapiens) (UniProt P41595); assay: Binding affinity at 5HT2B receptor at 1 uM
[3] = molecular target: T2, 5-hydroxytryptamine receptor 2C (Homo sapiens) (UniProt P28335); assay: Binding affinity at 5HT2C receptor at 1 uM
T2 sequence (whole entry): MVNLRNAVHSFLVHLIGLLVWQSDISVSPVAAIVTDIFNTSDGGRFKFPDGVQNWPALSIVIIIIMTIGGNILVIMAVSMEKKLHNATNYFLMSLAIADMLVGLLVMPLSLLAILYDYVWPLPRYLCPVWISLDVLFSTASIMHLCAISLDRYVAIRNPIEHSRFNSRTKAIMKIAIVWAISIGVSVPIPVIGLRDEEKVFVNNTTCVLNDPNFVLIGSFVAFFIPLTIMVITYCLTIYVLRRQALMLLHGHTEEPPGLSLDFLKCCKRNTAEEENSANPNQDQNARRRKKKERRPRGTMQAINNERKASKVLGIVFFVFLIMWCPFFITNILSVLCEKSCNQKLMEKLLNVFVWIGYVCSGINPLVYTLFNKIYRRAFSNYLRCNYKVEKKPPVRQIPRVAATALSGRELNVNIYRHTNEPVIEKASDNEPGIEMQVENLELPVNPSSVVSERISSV

[4] = molecular target: 5-hydroxytryptamine receptor 7 (Homo sapiens) (UniProt P34969); assay: Binding affinity at 5HT7 receptor at 1 uM
Sequence of 5-hydroxytryptamine receptor 7 (Homo sapiens) (P34969 whole entry): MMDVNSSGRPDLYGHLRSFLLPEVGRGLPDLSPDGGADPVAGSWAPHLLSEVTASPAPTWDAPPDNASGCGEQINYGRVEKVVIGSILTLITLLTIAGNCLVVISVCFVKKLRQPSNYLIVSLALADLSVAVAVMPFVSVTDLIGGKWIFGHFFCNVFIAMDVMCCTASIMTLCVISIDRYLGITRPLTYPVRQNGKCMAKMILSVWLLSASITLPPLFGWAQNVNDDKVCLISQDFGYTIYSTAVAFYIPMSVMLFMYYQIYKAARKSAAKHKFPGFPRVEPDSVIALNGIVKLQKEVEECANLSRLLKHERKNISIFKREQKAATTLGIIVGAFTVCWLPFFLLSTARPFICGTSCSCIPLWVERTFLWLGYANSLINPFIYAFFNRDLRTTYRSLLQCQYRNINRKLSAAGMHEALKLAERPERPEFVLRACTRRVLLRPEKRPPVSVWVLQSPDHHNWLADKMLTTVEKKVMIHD

[5] = molecular target: Histamine H1 receptor (Homo sapiens) (UniProt P35367); assay: Binding affinity at histamine H1 receptor at 1 uM
Sequence of Histamine H1 receptor (Homo sapiens) (P35367 whole entry): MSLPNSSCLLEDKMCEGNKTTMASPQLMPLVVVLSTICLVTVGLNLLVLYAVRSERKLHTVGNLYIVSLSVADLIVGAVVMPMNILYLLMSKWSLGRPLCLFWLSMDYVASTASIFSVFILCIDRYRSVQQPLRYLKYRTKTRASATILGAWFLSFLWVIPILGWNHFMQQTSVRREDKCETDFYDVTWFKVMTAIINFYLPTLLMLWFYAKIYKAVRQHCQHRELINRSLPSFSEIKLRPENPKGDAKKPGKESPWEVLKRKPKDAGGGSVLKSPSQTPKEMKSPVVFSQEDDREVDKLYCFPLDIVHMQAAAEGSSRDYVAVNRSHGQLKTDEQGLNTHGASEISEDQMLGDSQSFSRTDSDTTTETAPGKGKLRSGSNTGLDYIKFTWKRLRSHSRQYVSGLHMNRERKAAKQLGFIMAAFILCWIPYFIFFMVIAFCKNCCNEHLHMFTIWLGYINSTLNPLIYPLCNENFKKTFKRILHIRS

[6] = molecular target: T3, 5-hydroxytryptamine receptor 6 (Homo sapiens, UniProt P50406); assay: Displacement of [3H]LSD from 5HT6 receptor expressed in HEK293 cells; assay type: cell-based
T3 sequence (P50406 whole entry): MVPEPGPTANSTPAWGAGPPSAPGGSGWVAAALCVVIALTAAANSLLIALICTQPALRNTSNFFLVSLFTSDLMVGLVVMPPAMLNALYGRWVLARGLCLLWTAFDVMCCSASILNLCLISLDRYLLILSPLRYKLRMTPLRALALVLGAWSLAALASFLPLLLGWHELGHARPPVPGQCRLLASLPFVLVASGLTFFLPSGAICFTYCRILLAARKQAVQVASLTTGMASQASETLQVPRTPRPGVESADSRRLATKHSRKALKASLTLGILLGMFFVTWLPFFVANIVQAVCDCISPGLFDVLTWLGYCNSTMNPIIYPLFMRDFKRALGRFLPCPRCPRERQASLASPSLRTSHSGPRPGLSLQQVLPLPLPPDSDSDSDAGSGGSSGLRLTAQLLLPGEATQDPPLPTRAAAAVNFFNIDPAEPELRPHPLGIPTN

[7] = molecular target: T3, 5-hydroxytryptamine receptor 6; assay: Displacement of [3H]LSD from 5HT6 receptor expressed in HEK293 cells at 10 uM; assay type: cell-based
[8] = molecular target: T1, 5-hydroxytryptamine receptor 2A; assay: Binding affinity at 5HT2A receptor at 1 uM
[9] = molecular target: 5-hydroxytryptamine receptor 2B (Homo sapiens) (UniProt P41595); assay: Inhibition of 5HT2B receptor at 10 uM
[10] = molecular target: T2, 5-hydroxytryptamine receptor 2C (Homo sapiens); assay: Inhibition of 5HT2C receptor at 10 uM
[11] = molecular target: Histamine H1 receptor (Homo sapiens) (UniProt P35367); assay: Inhibition of histamine H1 receptor at 10 uM
[12] = molecular target: D(3) dopamine receptor (Homo sapiens) (UniProt P35462); assay: Inhibition of dopamine D3 receptor at 10 uM
Sequence of D(3) dopamine receptor (Homo sapiens) (P35462 whole entry): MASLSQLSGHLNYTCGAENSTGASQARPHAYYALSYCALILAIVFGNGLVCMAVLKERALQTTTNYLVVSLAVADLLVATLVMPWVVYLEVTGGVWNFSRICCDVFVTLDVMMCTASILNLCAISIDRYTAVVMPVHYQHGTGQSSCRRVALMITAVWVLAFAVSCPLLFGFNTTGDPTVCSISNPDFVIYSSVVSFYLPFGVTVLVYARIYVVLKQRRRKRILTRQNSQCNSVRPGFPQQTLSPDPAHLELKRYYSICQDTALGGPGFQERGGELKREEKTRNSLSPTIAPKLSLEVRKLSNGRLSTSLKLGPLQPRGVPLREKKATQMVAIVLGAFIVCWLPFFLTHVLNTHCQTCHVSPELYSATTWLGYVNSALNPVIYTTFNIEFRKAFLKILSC

[13] = molecular target: Sodium-dependent serotonin transporter (Homo sapiens) (UniProt P31645); assay: Inhibition of SERT at 10 uM
Sequence of Sodium-dependent serotonin transporter (Homo sapiens) (P31645 whole entry, looked up): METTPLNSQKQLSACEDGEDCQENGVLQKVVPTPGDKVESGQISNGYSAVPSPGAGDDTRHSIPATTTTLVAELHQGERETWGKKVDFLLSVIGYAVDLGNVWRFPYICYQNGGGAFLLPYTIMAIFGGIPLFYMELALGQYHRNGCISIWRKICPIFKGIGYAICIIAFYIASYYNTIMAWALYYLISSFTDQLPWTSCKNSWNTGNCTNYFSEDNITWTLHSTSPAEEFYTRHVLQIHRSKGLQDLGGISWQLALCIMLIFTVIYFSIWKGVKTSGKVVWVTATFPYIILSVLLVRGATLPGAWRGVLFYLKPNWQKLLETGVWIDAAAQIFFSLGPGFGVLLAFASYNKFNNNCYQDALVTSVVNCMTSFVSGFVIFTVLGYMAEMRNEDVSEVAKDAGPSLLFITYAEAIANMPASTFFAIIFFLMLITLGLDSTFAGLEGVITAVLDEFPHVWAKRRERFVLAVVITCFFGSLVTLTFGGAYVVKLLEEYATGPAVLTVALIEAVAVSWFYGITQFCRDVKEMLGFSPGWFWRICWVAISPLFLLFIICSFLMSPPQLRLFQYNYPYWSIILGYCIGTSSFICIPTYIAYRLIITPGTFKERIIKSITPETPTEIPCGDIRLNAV

[14] = molecular target: T4, 5-hydroxytryptamine receptor 3A (Homo sapiens) (UniProt P46098); assay: Inhibition of 5HT3 receptor at 10 uM
T4 sequence (whole entry): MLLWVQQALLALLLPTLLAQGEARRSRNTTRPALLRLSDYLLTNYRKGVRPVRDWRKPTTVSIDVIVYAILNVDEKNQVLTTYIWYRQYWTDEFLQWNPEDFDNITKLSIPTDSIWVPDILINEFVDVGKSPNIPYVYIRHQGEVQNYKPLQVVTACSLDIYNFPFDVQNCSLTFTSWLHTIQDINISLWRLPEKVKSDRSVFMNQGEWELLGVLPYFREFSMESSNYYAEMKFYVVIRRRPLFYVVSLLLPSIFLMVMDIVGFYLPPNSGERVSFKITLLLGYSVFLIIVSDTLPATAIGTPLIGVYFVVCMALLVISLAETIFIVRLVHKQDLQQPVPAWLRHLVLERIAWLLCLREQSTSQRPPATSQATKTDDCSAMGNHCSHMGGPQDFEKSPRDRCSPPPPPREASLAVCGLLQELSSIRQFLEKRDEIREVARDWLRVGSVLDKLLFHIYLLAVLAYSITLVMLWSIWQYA

[15] = molecular target: 5-hydroxytryptamine receptor 4 (Homo sapiens) (UniProt Q13639); assay: Inhibition of 5HT4 receptor at 10 uM
Sequence of 5-hydroxytryptamine receptor 4 (Homo sapiens) (Q13639 whole entry): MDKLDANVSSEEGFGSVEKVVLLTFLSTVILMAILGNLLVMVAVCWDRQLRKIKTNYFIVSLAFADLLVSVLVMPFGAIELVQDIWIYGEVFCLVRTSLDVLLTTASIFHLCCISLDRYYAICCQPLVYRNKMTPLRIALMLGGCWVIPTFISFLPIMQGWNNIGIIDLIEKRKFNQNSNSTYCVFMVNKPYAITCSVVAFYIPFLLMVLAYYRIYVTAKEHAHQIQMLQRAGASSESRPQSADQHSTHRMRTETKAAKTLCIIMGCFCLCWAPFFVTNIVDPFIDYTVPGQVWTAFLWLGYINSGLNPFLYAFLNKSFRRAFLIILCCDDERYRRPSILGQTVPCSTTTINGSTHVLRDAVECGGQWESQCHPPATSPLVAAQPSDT

[16] = molecular target: 5-hydroxytryptamine receptor 5A (Homo sapiens) (UniProt P47898); assay: Inhibition of 5HT5A receptor at 10 uM
Sequence of 5-hydroxytryptamine receptor 5A (Homo sapiens) (P47898 whole entry): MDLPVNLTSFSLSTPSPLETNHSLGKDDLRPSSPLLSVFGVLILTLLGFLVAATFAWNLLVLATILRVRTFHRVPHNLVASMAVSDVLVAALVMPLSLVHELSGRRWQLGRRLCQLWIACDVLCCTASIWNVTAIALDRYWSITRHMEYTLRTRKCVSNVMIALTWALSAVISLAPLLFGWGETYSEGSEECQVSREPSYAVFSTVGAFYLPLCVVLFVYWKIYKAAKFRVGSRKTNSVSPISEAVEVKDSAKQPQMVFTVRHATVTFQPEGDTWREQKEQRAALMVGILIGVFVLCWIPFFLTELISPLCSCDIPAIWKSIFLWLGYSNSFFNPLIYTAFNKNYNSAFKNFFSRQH

[17] = molecular target: T5, 5-hydroxytryptamine receptor 1A (Homo sapiens) (UniProt P08908); assay: Inhibition of 5HT1A receptor at 10 uM
T5 sequence (whole entry): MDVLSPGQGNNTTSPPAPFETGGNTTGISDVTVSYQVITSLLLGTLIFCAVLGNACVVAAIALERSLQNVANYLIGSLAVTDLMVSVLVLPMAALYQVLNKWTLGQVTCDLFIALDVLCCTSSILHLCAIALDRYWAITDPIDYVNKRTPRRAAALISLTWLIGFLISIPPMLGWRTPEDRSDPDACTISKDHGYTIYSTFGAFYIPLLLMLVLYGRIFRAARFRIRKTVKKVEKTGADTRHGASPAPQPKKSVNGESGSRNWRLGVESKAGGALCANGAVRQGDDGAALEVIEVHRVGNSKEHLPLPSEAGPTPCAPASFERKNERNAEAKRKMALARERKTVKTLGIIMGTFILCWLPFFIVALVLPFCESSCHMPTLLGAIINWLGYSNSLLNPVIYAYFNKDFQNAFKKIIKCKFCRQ

[18] = molecular target: 5-hydroxytryptamine receptor 1B (Homo sapiens) (UniProt P28222); assay: Inhibition of 5HT1B receptor at 10 uM
Sequence of 5-hydroxytryptamine receptor 1B (Homo sapiens) (P28222 whole entry): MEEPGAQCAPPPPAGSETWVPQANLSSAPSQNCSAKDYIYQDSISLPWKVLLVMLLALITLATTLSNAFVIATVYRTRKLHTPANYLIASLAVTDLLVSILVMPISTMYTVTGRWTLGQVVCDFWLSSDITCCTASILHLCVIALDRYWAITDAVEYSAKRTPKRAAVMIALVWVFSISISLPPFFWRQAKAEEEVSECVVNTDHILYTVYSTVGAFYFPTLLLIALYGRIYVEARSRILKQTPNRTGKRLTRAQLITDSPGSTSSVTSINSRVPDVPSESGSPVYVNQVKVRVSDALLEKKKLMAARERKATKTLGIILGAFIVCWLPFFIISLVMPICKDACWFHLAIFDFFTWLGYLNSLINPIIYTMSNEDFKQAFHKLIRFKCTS

[19] = molecular target: 5-hydroxytryptamine receptor 7 (Homo sapiens) (UniProt P34969); assay: Inhibition of 5HT7 receptor at 10 uM

Sequence of 5-hydroxytryptamine receptor 2B (Homo sapiens) (P41595 whole entry): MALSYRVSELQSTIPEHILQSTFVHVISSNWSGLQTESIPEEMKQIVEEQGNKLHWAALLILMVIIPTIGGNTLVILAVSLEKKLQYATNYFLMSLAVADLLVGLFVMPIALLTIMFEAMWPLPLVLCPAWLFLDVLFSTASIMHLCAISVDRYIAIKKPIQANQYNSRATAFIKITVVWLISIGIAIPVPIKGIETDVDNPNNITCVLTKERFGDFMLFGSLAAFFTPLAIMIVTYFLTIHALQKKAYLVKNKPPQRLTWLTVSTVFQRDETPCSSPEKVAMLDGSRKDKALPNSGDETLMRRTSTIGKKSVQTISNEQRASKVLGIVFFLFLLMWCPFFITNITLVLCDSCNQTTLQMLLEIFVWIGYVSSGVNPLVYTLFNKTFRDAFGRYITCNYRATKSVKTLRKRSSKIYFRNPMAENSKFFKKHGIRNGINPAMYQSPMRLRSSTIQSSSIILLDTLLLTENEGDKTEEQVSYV
T1 sequence (P28223 whole entry): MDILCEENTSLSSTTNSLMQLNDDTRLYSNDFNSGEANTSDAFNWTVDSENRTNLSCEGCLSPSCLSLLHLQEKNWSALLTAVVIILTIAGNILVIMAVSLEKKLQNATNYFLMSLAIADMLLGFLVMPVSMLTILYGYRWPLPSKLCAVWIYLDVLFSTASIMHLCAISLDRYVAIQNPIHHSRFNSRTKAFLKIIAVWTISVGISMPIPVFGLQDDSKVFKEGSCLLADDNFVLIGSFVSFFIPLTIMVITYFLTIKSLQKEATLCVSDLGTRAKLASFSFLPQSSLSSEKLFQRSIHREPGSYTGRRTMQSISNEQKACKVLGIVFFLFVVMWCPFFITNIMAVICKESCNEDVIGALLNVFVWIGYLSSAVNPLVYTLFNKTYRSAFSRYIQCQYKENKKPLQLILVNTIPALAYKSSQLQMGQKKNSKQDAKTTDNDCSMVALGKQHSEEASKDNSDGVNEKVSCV

For `CN1CCN(c2ccc(C#N)c(NCc3ccccc3)c2)CC1`, which Ki [1] is on record?
The Ki was 47 nM.

And the inhibition [2]?
Its inhibition is 68%.

And the inhibition [3]?
Its inhibition is 72%.

What about the inhibition [4] of the same compound?
The inhibition was 52%.

What about the inhibition [5] of the same compound?
The inhibition was 65%.

Which Activity [6] does the source give for `CC(=O)Nc1cc(N2CCN(C)CC2)ccc1N(Cc1ccccc1)C(C)=O` here?
Its Activity is “inactive”.

For `CN1CCN(c2ccc([N+](=O)[O-])c(NCc3ccccc3)c2)CC1`, which Activity [7] is on record?
The Activity was 74%.

Which Ki [6] does the source give for `CN1CCN(c2ccc([N+](=O)[O-])c(-n3nc(-c4ccccc4)c4ccccc4c3=O)c2)CC1` here?
The Ki was 1220 nM.

For `CN1CCN(c2ccc(C(=O)O)c(NCCc3ccccc3)c2)CC1`, which Activity [6] is on record?
Its Activity is “inactive”.

For `COc1ccc(CCNc2cc(N3CCNCC3)ccc2[N+](=O)[O-])cc1OC`, which Activity [7] is on record?
The Activity was 59%.

Which Activity [7] does the source give for `COc1ccc(CCNc2cc(N3CCN(C)CC3)ccc2[N+](=O)[O-])cc1OC` here?
The Activity was 24%.

Which Ki [6] does the source give for `CN(C)CCc1c[nH]c2ccc(NS(=O)(=O)c3ccc4c(Cl)cccc4c3)cc12` here?
Its Ki is 0.7 nM.

How did the Activity [7] turn out when `COc1ccc(N2CCN(C)CC2)cc1NCc1ccco1` was run?
Its Activity is 53%.

Which Activity [7] does the source give for `CN1CCN(c2ccc(C(=O)O)c(NCc3ccccc3)c2)CC1` here?
The Activity was 49%.

Which Activity [7] does the source give for `CC(Nc1cc(N2CCNCC2)ccc1[N+](=O)[O-])c1ccccc1` (centres undefined) here?
The Activity was 13%.

With `CN1CCN(c2ccc(NS(=O)(=O)c3ccccc3)c(NCc3ccccc3)c2)CC1` as the compound, how does the inhibition [8] read?
Its inhibition is 61%.

What about the inhibition [2] of the same compound?
The inhibition was 63%.

And the inhibition [3]?
The inhibition was 14%.

And the inhibition [4]?
The inhibition was 6%.

What about the inhibition [5] of the same compound?
The inhibition was 2%.

For `CN1CCN(c2ccc(C(=O)O)c(NCc3ccco3)c2)CC1`, which Activity [6] is on record?
The Activity was “inactive”.

How did the Ki [6] turn out when `CN1CCN(c2ccc(OCc3ccccc3)c(NCc3ccccc3)c2)CC1` was run?
Its Ki is 928 nM.

With `CN1CCN(c2ccc([N+](=O)[O-])c(-n3ncccc3=O)c2)CC1` as the compound, how does the Activity [7] read?
Its Activity is 24%.

`Cc1ccc(OCCNc2cc(N3CCN(C)CC3)ccc2[N+](=O)[O-])cc1C` was tested. Which Activity [7] did it give?
Its Activity is 67%.

With `O=[N+]([O-])c1ccc(N2CCNCC2)cc1NCc1ccc(Cl)cc1` as the compound, how does the Ki [6] read?
Its Ki is 8 nM.

Which Activity [6] does the source give for `CN1CCN(c2ccc([N+](=O)[O-])c(NC(=O)c3ccccc3)c2)CC1` here?
The Activity was “inactive”.

Which Activity [7] does the source give for `CN1CCN(c2ccc([N+](=O)[O-])c(N(C)C(=O)c3ccccc3)c2)CC1` here?
Its Activity is 49%.

Which Ki [6] does the source give for `COc1ccc(N2CCN(C)CC2)cc1NCCc1ccccc1` here?
The Ki was 1010 nM.

For `COc1cc(N2CCN(C)CC2)ccc1NCc1ccccc1`, which Activity [7] is on record?
The Activity was 49%.

For `CN1CCN(c2ccc([N+](=O)[O-])c(NCCc3ccccc3)c2)CC1`, which Ki ([6]; hek293) is on record?
Its Ki is 119 nM.

Which Activity [7] does the source give for `COC(=O)c1ccc(N2CCN(C)CC2)cc1NCc1ccco1` here?
The Activity was 31%.

How did the Ki [6] turn out when `COC(=O)c1cc(N2CCN(C)CC2)ccc1NCc1ccccc1` was run?
The Ki was 1890 nM.

For `O=[N+]([O-])c1ccc(N2CCNCC2)cc1NCc1ccccc1`, which Ki [6] is on record?
Its Ki is 28 nM.

`CN1CCN(c2ccc(C#N)c(NCc3ccco3)c2)CC1` was tested. Which Ki [6] did it give?
The Ki was 1360 nM.

`CN1CCN(c2ccc([N+](=O)[O-])c(Oc3ccccc3)c2)CC1` was tested. Which Ki [6] did it give?
The Ki was 27 nM.

With `CN1CCN(c2ccc([N+](=O)[O-])c(NCCOc3ccc(Cl)cc3)c2)CC1` as the compound, how does the Activity [7] read?
Its Activity is 21%.

For `Cc1cccc(OCCNc2cc(N3CCN(C)CC3)ccc2[N+](=O)[O-])c1`, which Activity [7] is on record?
The Activity was 10%.

Which Activity [7] does the source give for `COc1cccc(OCCNc2cc(N3CCN(C)CC3)ccc2[N+](=O)[O-])c1` here?
The Activity was 22%.

With `NCCNc1ccc([N+](=O)[O-])c(NCc2ccccc2)c1` as the compound, how does the Ki [6] read?
The Ki was 1490 nM.

Which Activity [7] does the source give for `CN1CCN(c2ccc(NCc3ccccc3)c([N+](=O)[O-])c2)CC1` here?
The Activity was 64%.

With `COC(=O)c1ccc(N2CCN(C)CC2)cc1NCc1ccccc1` as the compound, how does the Activity [7] read?
The Activity was 72%.

`CN1CCN(c2ccc(NCc3ccccc3)c(C(=O)O)c2)CC1` was tested. Which Activity [7] did it give?
The Activity was 37%.

What does the source list for `CN1CCN(c2ccc([N+](=O)[O-])c(NCc3ccco3)c2)CC1`?
inhibition [9]: > 90%; inhibition [10]: > 90%; inhibition [11]: > 90%; inhibition [12]: > 90%; inhibition [13]: > 90%; inhibition [14]: < 40%; inhibition [15]: < 40%; inhibition [16]: < 40%; inhibition [17]: 61%; inhibition [18]: 61%; inhibition [19]: 61%

For `CN1CCN(c2ccc([N+](=O)[O-])c(NCCn3cccc3)c2)CC1`, which Activity [7] is on record?
Its Activity is 78%.

— ChEMBL document CHEMBL1140533, “Discovery of 5-HT6 receptor ligands based on virtual HTS” (Bioorg Med Chem Lett, 2007)
